Values quoted from earlier work, collected in US20230263779A1, “METHODS OF TREATING SOLID TUMORS USING NANOPARTICLE MTOR INHIBITOR COMBINATION THERAPY” (Abraxis BioScience, LLC, priority 2015, published 2023).

Experiments:
[1] = in vivo

Compound: COc1ccc(COc2cc3oc(=O)c4cc(C(C)O)ccc4c3cc2OC)cc1 (centres unmarked) [Palomid 529]
- affinity for ABCB1/ABCG2 (ABCB1/ABCG2): lacks affinity
- brain penetration [1]: good brain penetration
